Results on one compound are retold here after patent US20110177161A1, “PHARMACEUTICAL COMPOSITIONS OF [5(S)-(2'-HYDROXYETHOXY)-20(S)-CAMPTOTHECIN” (DR. REDDY'S LABORATORIES LIMITED, priority 2007, published 2011).

Bounds are passed on as bounds.

Data set [1] relates to 34 human cancer cell lines. In words: In vitro cell growth assay, Sulphorhodamine B (SRB). It is filed as cell-based. Particulars: 48 h exposure. How it is done: Cell proliferation was evaluated by Sulphorhodamine B (SRB) assay where the amount of dye bound to the cells after staining gives a measure of cell growth. Refer to: JNCI, vol 83, No. 11, Jun. 5, 1991, which is incorporated herein by reference.
Briefly, cells (34 human cancer cell lines represented by bladder, breast, CNS, colon, epidermoid, lung, ovarian, melanoma, prostate, renal and uterine cancers) were seeded on a 96-well cell culture plates at a concentration of 10,000 cells per well and incubated at 37 degree C. in a CO2 incubator. Twenty-four hours later, cells were treated with different concentrations of […] dissolved in DMSO to a final concentration of 0.05% in the culture medium and exposed for 48 h. Cells were fixed by adding ice-cold 50% trichloroacetic acid (TCA) and incubating for 1 h at 4° C. The plates were washed with distilled water, air dried and stained with SRB solution (0.4% wt/vol in 1% Acetic acid) for 10 min at room temperature. Unbound SRB was removed by washing thoroughly with 1% acetic acid and the plates were air-dried. The bound SRB stain was solubilized with 10 mM Tris buffer, and the optical densities were read on a spectrophotometric plate reader at a single wavelength of 515 nm. […] From the optical densities the percentage growths were calculated using the following formulae: […]

Data set [2] relates to Human bone marrow mononuclear cells. The experiment in a line: Human bone marrow assay (CFU-GM colonies). It is filed as cell-based. Particulars: human. The method, then:
Methocult.TM. GF (Cat No: H4534, Poietics, Biowhittakar, USA) medium comprising Methycellulose in iscove's MDM, Fetal bovine serum, Bovine serum albumin, 2-Mercaptoethanol, L-Glutamine, rhStem cell factor, rhGM-CSF and rhIL-3 was used for the assay. Human bone marrow mononuclear cells (Cat No. 2M-125C, Poietics, Biowhittakar, USA) were mixed with Methocult GF and the cell density was adjusted to 3×10^5 cells/ml. From this preparation, 500 μL aliquots were made and […] of 20× drug solution or vehicle was added to each aliquot and mixed thoroughly. 100 μL of clonogenic medium was plated into each well and the plates were allowed to gel at 4° C. for 15 minutes. Plates were incubated at 37 degree C. in a fully humidified atmosphere of 5% CO2 in an incubator for 14 days. CFU-GM colonies were counted under an inverted microscope as aggregates of 50 cells or more. The percentage colony inhibition was calculated using the following formula: 100−[(number of colonies in drug treated wells/Number of colonies in control wells)×100].

The subject of data set [3] is Saos-2 cells over expressing functional BCRP#4. The experiment in a line: cells. It counts as cell-based, human. Particulars: Homo sapiens, SAOS-2, 144 h, read-out: BCRP mut#4 (IC50 (nM)). How it is done: (§1) The anticancer effect of 5(S)-(2′-hydroxyethoxy)-20(S)-camptothecin & 5(R)-(2′-hydroxyethoxy)-20(S)-camptothecin were evaluated versus the racemate 5(RS)-(2′-hydroxyethoxy)-20(S)-camptothecin on Saos-2 cells over expressing functional BCRP#4 and non-functional BCRP mut#10. The human osteosarcoma cell line, Saos-2, was obtained from ATCC (American Type Culture Collection, Cat#HTB-85, Manassas, Va.) and were maintained in DMEM containing 10% fetal bovine serum, 1% penicillin/streptomycin, and 2 mM glutamine. Saos-2 cells were transfected with either BCRP#4 to over express functional BCRP or BCRP#10 to over express non-functional BCRP transporter. The cells were plated in 96-well plates at a density of 1000 cells per each well in a 0.1 ml of medium and allowed to attach overnight. The next morning the medium was gently aspirated and serial dilutions of the compounds to be tested were added. The cells were incubated at 37° C. in a 5% CO2 incubator. After 6 days of exposure to the test drugs, 10µl of Alamar blue was added aseptically to each well and the plates were returned to the incubator for 6 hr. The amount of the fluorescent dye produced was measured on a Cytofluor.RTM. 2300 (Millipore, Bedford, Mass.) using an excitation wavelength of 530 nm and emission wavelength of 590 nm. The relative fluorescence units obtained were used to calculate the percentage growth at each concentration in relation to the untreated control values. From the percentage growth values the IC50 (inhibitory concentration required to inhibit the cell growth by 50% compared to control cells growth) values were derived.

Data set [4] concerns Saos-2 cells over expressing non-functional BCRP mut#10. In words: cells. Particulars: Homo sapiens, SAOS-2, 144 h, read-out: BCRP mut#10 (IC50 (nM)). It is filed as cell-based, human. How it is done: as §1

What is called GI50 is the concentration at which growth is held to half of that of the control. Read a high GI50 as lower sensitivity of the cells. One may read the IC50 as the concentration needed to halve the response being measured. Take `CC[C@@]1(O)C(=O)OCc2c1cc1n(c2=O)[C@H](OCCO)c2cc3ccccc3nc2-1` [5(R)-(2′-hydroxyethoxy)-20(S)-camptothecin, reference compound]: it took 14600 nM to inhibit growth in data set [1] by half (GI50). Also, in data set [2], the “Safety Margin GI90/GI50” value is recorded as 0.06. In addition, the half-maximal inhibitory concentration (IC50) is > 2000 nM in data set [3] and 1300 nM in data set [4].
